Like-named read-outs stand apart in the source and are kept apart here.
Assay: CD69 Whole Blood Assay (CD69 Hu Blood FACS)
Assay type: cell-based, human
Settings: Lymphocyte, human whole blood, anti-IgM activated B lymphocytes, FACS, IC70
Outline: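 Human whole blood stimulated by crosslinking surface IgM with goat F(ab′)2 anti-human IgM; inhibition of CD69 expression on B lymphocytes measured by flow cytometry.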

[1] = Table 2 (unit inferred), read-out: CD69 Hu Blood FACS (IC70)
[2] = Table 1, read-out: CD69 Hu Blood FACS IC70

| Structure (SMILES) | IC70 [1] [µM] | IC70 [2] [µM] |
| --- | --- | --- |
| C[C@H]1CN(C2COC2)CCN1c1ccc(Nc2cc(-c3ccnc(N4CCn5c(cc6c5CC(C)(C)C6)C4=O)c3C(N)=O)cn(C)c2=O)nc1 [Example 210, 2-(7,7-dimethyl-4-oxo-1,2,6,8-tetrahydrocyclopenta[3,4]pyrrolo[3,5-b]pyrazin-3-yl)-4-[1-methyl-5-[[5-[(2S)-2-methyl-4-(oxetan-3-yl)piperazin-1-yl]-2-pyridyl]amino]-6-oxo-3-pyridyl]pyridine-3-carboxamide] | 0.914 |  |
| CN(Cc1cc(Nc2cc(-c3ccnc(N4CCn5c(cc6c5CC(C)(C)C6)C4=O)c3CO)cn(C)c2=O)nn1C)C1COC1 [Example 302, 3-[3-(hydroxymethyl)-4-[1-methyl-5-[[1-methyl-5-[[methyl(oxetan-3-yl)amino]methyl]pyrazol-3-yl]amino]-6-oxo-3-pyridyl]-2-pyridyl]-7,7-dimethyl-1,2,6,8-tetrahydrocyclopenta[3,4]pyrrolo[3,5-b]pyrazin-4-one] | 0.0228 |  |
| Cn1cc(-c2ccnc(N3CCn4c(cc5c4CC(C)(C)C5)C3=O)c2CO)cc(Nc2ccncn2)c1=O [Example 144, 2-[3′-Hydroxymethyl-1-methyl-6-oxo-5-(pyrimidin-4-ylamino)-1,6-dihydro-[3,4′]bipyridinyl-2′-yl]-7,7-dimethyl-3,4,7,8-tetrahydro-2H,6H-cyclopenta-[4,5]pyrrolo[1,2-a]pyrazin-1-one] |  | 0.106 |
| C[C@H]1CN(C2COC2)CCN1c1ccc(Nc2cc(-c3ccnc(N4CCn5c(cc6c5CC(F)(F)CC6)C4=O)c3CO)cn(C)c2=O)nc1 [Example 140, (S)-7,7-Difluoro-2-(3-(hydroxymethyl)-4-(1-methyl-5-(5-(2-methyl-4-(oxetan-3-yl)piperazin-1-yl)pyridin-2-ylamino)-6-oxo-1,6-dihydropyridin-3-yl)pyridin-2-yl)-3,4,6,7,8,9-hexahydropyrazino[1,2-a]indol-1(2H)-one] |  | 0.308 |
| C[C@H]1CN(C2COC2)CCN1c1ccc(Nc2cc(-c3ccnc(N4CCn5c(cc6c5CC(C)(C)C6)C4=O)c3CO)nn(C)c2=O)nc1 [Example 224, 3-[3-(hydroxymethyl)-4-[1-methyl-5-[[5-[(2S)-2-methyl-4-(oxetan-3-yl)piperazin-1-yl]-2-pyridyl]amino]-6-oxo-pyridazin-3-yl]-2-pyridyl]-7,7-dimethyl-1,2,6,8-tetrahydrocyclopenta[3,4]pyrrolo[3,5-b]pyrazin-4-one] | 0.0307 |  |
| Cn1cc(-c2ccnc(N3CCn4c(cc5c4CCCC5)C3=O)c2CO)cc(Nc2ccc(S(C)(=O)=O)cn2)c1=O [Example 117, 2-(3-(hydroxymethyl)-4-(1-methyl-5-(5-(methylsulfonyl)pyridin-2-ylamino)-6-oxo-1,6-dihydropyridin-3-yl)pyridin-2-yl)-3,4,6,7,8,9-hexahydro-pyrazino[1,2-a]indol-1(2H)-one] |  | 0.396 |
| CN1CCC(c2ccc(Nc3cc(-c4ccnc(N5CCn6c(cc7c6CC(C)(C)C7)C5=O)c4CO)cn(C)c3=O)nc2)CC1 [Example 236, 3-[3-(hydroxymethyl)-4-[1-methyl-5-[[5-(1-methyl-4-piperidyl)-2-pyridyl]amino]-6-oxo-3-pyridyl]-2-pyridyl]-7,7-dimethyl-1,2,6,8-tetrahydrocyclopenta[3,4]pyrrolo[3,5-b]pyrazin-4-one] | 0.0336 |  |
| Cn1cc(-c2cncc(-n3ccn4c5c(cc4c3=O)CCCC5)c2CO)cc(Nc2ccc(N3CCN(C4COC4)CC3)cn2)c1=O [Example 126, 2-(4-(Hydroxymethyl)-5-(1-methyl-5-(5-(4-(oxetan-3-yl)piperazin-1-yl)pyridin-2-ylamino)-6-oxo-1,6-dihydropyridin-3-yl)pyridin-3-yl)-6,7,8,9-tetrahydropyrazino[1,2-a]indol-1(2H)-one] |  | 0.138 |
| Cc1cc(Nc2cc(-c3ccnc(N4CCn5c(cc6c5CC(C)(C)C6)C4=O)c3CO)cn(C)c2=O)ncn1 [Example 180, 2-[3′-Hydroxymethyl-1-methyl-5-(6-methyl-pyrimidin-4-ylamino)-6-oxo-1,6-dihydro-[3,4′]bipyridinyl-2′-yl]-7,7-dimethyl-3,4,7,8-tetrahydro-2H,6H-cyclopenta[4,5]pyrrolo[1,2-a]pyrazin-1-one] |  | 0.245 |
| Cn1cc(-c2ccnc(N3CCn4c(cc5c4CCCC5)C3=O)c2CO)cc(Nc2ccc(N3CCN(C4COC4)CC3)cn2)c1=O [Example 103, 2-(3-(Hydroxymethyl)-4-(1-methyl-5-(5-(4-(oxetan-3-yl)piperazin-1-yl)pyridin-2-ylamino)-6-oxo-1,6-dihydropyridin-3-yl)pyridin-2-yl)-3,4,6,7,8,9-hexahydropyrazino[1,2-a]indol-1(2H)-one] |  | 0.0776 |
| Cn1cc(-c2cncc(N3CCn4c(cc5c4CC(C)(C)C5)C3=O)c2CO)cc(Nc2ccc(N3CCN(C4COC4)CC3)cn2)c1=O [Example 107, 10-[4-[1-Methyl-5-({5-[4-(oxetan-3-yl)piperazin-1-yl]pyridine-2-yl}amino)-6-oxo-1,6-dihydropyridin-3-yl]-4-(hydroxymethyl)pyridin-3-yl]-4,4-dimethyl-1,10-diazatricyclo[6.4.0.0^2,6]dodeca-2(6),7-dien-9-one] |  | 0.0216 |
| Cc1nccc(Nc2cc(-c3ccnc(N4CCn5c(cc6c5CC(C)(C)C6)C4=O)c3CO)nn(C)c2=O)n1 [Example 225, 3-[3-(hydroxymethyl)-4-[1-methyl-5-[(2-methylpyrimidin-4-yl)amino]-6-oxo-pyridazin-3-yl]-2-pyridyl]-7,7-dimethyl-1,2,6,8-tetrahydrocyclopenta[3,4]pyrrolo[3,5-b]pyrazin-4-one] | 0.766 |  |
| Cc1nn(C)c2cnc(Nc3cc(-c4ccnc(N5CCn6c(cc7c6CC(C)(C)C7)C5=O)c4CO)cn(C)c3=O)cc12 [Example 325, 3-[4-[5-[(1,3-dimethylpyrazolo[3,4-c]pyridin-5-yl)amino]-1-methyl-6-oxo-3-pyridyl]-3-(hydroxymethyl)-2-pyridyl]-7,7-dimethyl-1,2,6,8-tetrahydrocyclopenta[3,4]pyrrolo[3,5-b]pyrazin-4-one] | 1.4 |  |
| Cn1cc(-c2ccnc(N3CCc4c(sc5c4CC(C)(C)C5)C3=O)c2CO)cc(Nc2cnccn2)c1=O [Example 184, 6-[3′-Hydroxymethyl-1-methyl-6-oxo-5-(pyrazin-2-ylamino)-1,6-dihydro-[3,4′]bipyridinyl-2′-yl]-2,2-dimethyl-2,3,5,6-tetrahydro-1H,4H-8-thia-6-aza-cyclopenta[a]inden-7-one] |  | 0.601 |
| Cn1cc(-c2ccnc(N3CCn4c(cc5c4CC(C)(C)C5)C3=O)c2CO)cc(Nc2ccc(F)cn2)c1=O [Example 275, 3-[4-[5-[(5-fluoro-2-pyridyl)amino]-1-methyl-6-oxo-3-pyridyl]-3-(hydroxymethyl)-2-pyridyl]-7,7-dimethyl-1,2,6,8-tetrahydrocyclopenta[3,4]pyrrolo[3,5-b]pyrazin-4-one] | 0.423 |  |
| Cn1cc(-c2ccnc(N3CCn4c(cc5c4CCCC5)C3=O)c2CO)cc(Nc2cc3n(n2)CCNC3)c1=O [Example 205, 2-[3-(hydroxymethyl)-4-[1-methyl-6-oxo-5-(4,5,6,7-tetrahydropyrazolo[1,5-a]pyrazin-2-ylamino)-3-pyridyl]-2-pyridyl]-3,4,6,7,8,9-hexahydropyrazino[1,2-a]indol-1-one] | 0.114 |  |
| COCCN1CCn2nc(Nc3cc(-c4cncc(N5CCn6c(cc7c6CC(C)(C)C7)C5=O)c4CO)cn(C)c3=O)cc2C1 [Example 328, 3-[4-(hydroxymethyl)-5-[5-[[5-(2-methoxyethyl)-6,7-dihydro-4H-pyrazolo[1,5-a]pyrazin-2-yl]amino]-1-methyl-6-oxo-3-pyridyl]-3-pyridyl]-7,7-dimethyl-1,2,6,8-tetrahydrocyclopenta[3,4]pyrrolo[3,5-b]pyrazin-4-one] | 0.0124 |  |
| CN1CCn2nc(Nc3cc(-c4ccnc(N5CCn6c(cc7c6CCCC7)C5=O)c4CO)cn(C)c3=O)nc2C1 [Example 270, 2-[3-(hydroxymethyl)-4-[1-methyl-5-[(7-methyl-6,8-dihydro-5H-[1,2,4]triazolo[1,5-a]pyrazin-2-yl)amino]-6-oxo-3-pyridyl]-2-pyridyl]-3,4,6,7,8,9-hexahydropyrazino[1,2-a]indol-1-one] | 5.9 |  |
| CN1CC(Oc2ccc(Nc3cc(-c4ccnc(N5CCn6c(cc7c6CC(C)(C)C7)C5=O)c4CO)cn(C)c3=O)nc2)C1 [Example 207, 3-[3-(hydroxymethyl)-4-[1-methyl-5-[[5-(1-methylazetidin-3-yl)oxy-2-pyridyl]amino]-6-oxo-3-pyridyl]]-7,7-dimethyl-1,2,6,8-tetrahydrocyclopenta[3,4]pyrrolo[3,5-b]pyrazin-4-one] | 0.0414 |  |
| Cn1cc(-c2ccnc(N3CCn4c(cc5c4CCCC5)C3=O)c2CO)cc(Nc2ccc(C(=O)N3CCOCC3)cn2)c1=O [Example 111, 2-(3-(Hydroxymethyl)-4-(1-methyl-5-(5-(morpholine-4-carbonyl)pyridin-2-ylamino)-6-oxo-1,6-dihydropyridin-3-yl)pyridin-2-yl)-3,4,6,7,8,9-hexahydropyrazino[1,2-a]indol-1(2H)-one] |  | 0.131 |
| Cn1nc(Nc2cc(-c3ccnc(N4CCn5c(cc6c5CC(C)(C)C6)C4=O)c3CO)cn(C)c2=O)cc1C(=O)N1CCCC1 [Example 315, 3-[3-(hydroxymethyl)-4-[1-methyl-5-[[1-methyl-5-(pyrrolidine-1-carbonyl)pyrazol-3-yl]amino]-6-oxo-3-pyridyl]-2-pyridyl]-7,7-dimethyl-1,2,6,8-tetrahydrocyclopenta[3,4]pyrrolo[3,5-b]pyrazin-4-one] | 0.015 |  |
| Cn1cc(-c2ccnc(N3CCn4c(cc5c4CCCC5)C3=O)c2CO)cc(Nc2ccc(N3CCN(C4COC4)CC3(C)C)cn2)c1=O [Example 187, 2-(4-(5-(5-(2,2-dimethyl-4-(oxetan-3-yl)piperazin-1-yl)pyridin-2-ylamino)-1-methyl-6-oxo-1,6-dihydropyridin-3-yl)-3-(hydroxymethyl)pyridin-2-yl)-3,4,6,7,8,9-hexahydropyrazino[1,2-a]indol-1(2H)-one] |  | 0.0451 |

Source: patent publication US10045983B2, “Heteroaryl pyridone and aza-pyrodine compounds” (Genentech, Inc., priority 2011, dated 2018)
